Experimental findings from PubChem BioAssay (NCI) are described below.

Holding throughout (assay): NCI-60 cell line screen, 48 h
The test system of experiment [1] is HCC-2998 colon.
The subject of experiment [2] is MALME-3M melanoma.
Experiment [3] has as its system NCI-H23 lung.
In experiment [4] the test system is NCI-H460 lung.
The subject of experiment [5] is SF-268 CNS.
Experiment [6] relates to SF-539 CNS.
The test system of experiment [7] is SN12C renal.
Experiment [8] has as its system SR leukemia.
Experiment [9] relates to SW-620 colon.
Experiment [10] has as its system UACC-62 melanoma.

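Five concentrations, 48 hours, 96-well plates. GI50 marks 50% less growth. TGI marks complete inhibition of growth.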

Turning to `Cc1nc(N2CCC3(CC2)CO[C@@H](C)[C@H]3N)c(CO)nc1Sc1ccnc(N)c1Cl`, the GI50 in experiment [1] is more than 100 µM; in [2], more than 100 µM; in [3] it was 0.329 µM; in experiment [4], more than 100 µM; in [5] it was 12.8 µM; in experiment [6] it was 7.43 µM. The GI50 in [7] was 12.2 µM; in [8], 11.9 µM; in experiment [9], more than 100 µM; in experiment [10] it was more than 100 µM. The TGI in experiment [1], in experiment [2], in experiment [3], in experiment [4], in experiment [5] and in experiment [6] was more than 100 µM each time. Further, the TGI in experiment [7], in experiment [8], in [9] and in experiment [10] was more than 100 µM throughout.

Take `O=C(/C=C/c1ccccc1)n1c(-c2ccc(Cl)cc2)nc2ccccc21`: the GI50 in experiment [1] is 1.8 µM; in [2], 1.63 µM; in experiment [3], 1.91 µM; in experiment [4], 1.53 µM; in experiment [5], 2.1 µM; in experiment [6], 1.47 µM. The GI50 was 1.39 µM in [7], 0.379 µM in [8], 1.45 µM in experiment [9] and 1.27 µM in experiment [10]. Also, the TGI was 3.45 µM in experiment [1]; 5.74 µM in [2]; 4.89 µM in [3]; 3.5 µM in experiment [4]; 6.14 µM in experiment [5]; 2.92 µM in [6]. The TGI in experiment [7] was found to be 2.76 µM; in experiment [8] it was 1.88 µM; in experiment [9], 5.03 µM; in experiment [10], 2.88 µM.

In the case of `CCCCCCCCCCCCCCCCCC(=O)OCC(COC(=O)CCCN)OC(=O)CCCN` (stereo not given), the TGI is 35.9 µM in experiment [1]; 38.2 µM in experiment [2]; 31.9 µM in [3]; 30.7 µM in experiment [4]; 45.3 µM in experiment [5]; 32.2 µM in [6]. Further, the TGI in [7] was 31.6 µM; in experiment [8], more than 100 µM; in experiment [9], 38.2 µM; in experiment [10], 35.3 µM.

With `COc1ccc2c(c1)CC[C@H](O)/C2=C/c1cc(OC)c(OC)c(OC)c1`, the GI50 is 0.16 µM in experiment [1]; 0.771 µM in experiment [2]; 0.162 µM in experiment [3]; 0.107 µM in [4]; 0.198 µM in experiment [5]; 0.0722 µM in [6]. Also, the GI50 in [7] is 0.998 µM; in [8] it was 0.0546 µM; in [9] it was 0.0739 µM; in [10], 0.0403 µM. Also, the TGI in experiment [1] is more than 100 µM; in experiment [2], more than 100 µM; in experiment [3], more than 100 µM; in experiment [4], more than 36.8 µM; in experiment [5], more than 100 µM; in [6], 0.43 µM. Moreover, the TGI in experiment [7], in experiment [8], in experiment [9] and in experiment [10] was more than 100 µM in each case.

For `CC(C)(C)CC(C)(C)NCc1cc(C(C)(C)C)cc(CNC(C)(C)CC(C)(C)C)c1O`, the GI50 in experiment [1] was 2.58 µM; in [2], 1.85 µM; in [3] it was 2.42 µM; in experiment [4], 3.49 µM; in experiment [5], 5.4 µM; in [6], 5.16 µM. Also, the GI50 was 2.74 µM in experiment [7], 2.14 µM in experiment [8], 2.79 µM in experiment [9] and 3.34 µM in experiment [10]. The TGI in experiment [1] stood at 8.07 µM; in experiment [2] it was 4 µM; in experiment [3], 7.8 µM; in experiment [4], 12.9 µM; in experiment [5], 18.7 µM; in [6], 17.8 µM. Besides, the TGI in [7] worked out at 11.9 µM; in [8], 5.44 µM; in experiment [9] it was 12.4 µM; in [10], 12.3 µM.

As for `Cc1cccc(C)c1NC(=O)Nc1ccc(S(N)(=O)=O)cc1`, the TGI in [1], in experiment [2], in experiment [3], in experiment [4], in experiment [5] and in [6] was more than 100 µM throughout. For the same compound, the TGI in experiment [7], in experiment [8], in experiment [9] and in experiment [10] was more than 100 µM in each case.

Consider `O=[N+]([O-])CCc1cccc([N+](=O)[O-])c1`, for which the TGI in experiment [1], in [2], in experiment [3], in [4], in [5] and in experiment [6] was more than 100 µM throughout. The TGI is more than 100 µM in [7], more than 100 µM in experiment [8], 22.7 µM in [9] and more than 100 µM in [10].

Take `COc1ccccc1CNCCCN1C(=O)c2ccc3c4c(ccc(c24)C1=O)C(=O)N(CCCCNCCCN)C3=O`: the GI50 in experiment [1] was 1.12 µM; in experiment [2] it was 0.871 µM; in experiment [3], 0.594 µM; in experiment [4], 0.825 µM; in experiment [5], 1.57 µM; in experiment [6], 1.68 µM. The GI50 was 0.704 µM in [7], 0.362 µM in [8], 0.636 µM in experiment [9] and 1.01 µM in experiment [10]. The TGI worked out at 3.03 µM in [1]; 2.18 µM in experiment [2]; 1.63 µM in [3]; 2.82 µM in experiment [4]; 7.27 µM in experiment [5]; 3.19 µM in experiment [6]. Besides, the TGI in experiment [7] is 2.09 µM; in experiment [8], more than 23.6 µM; in experiment [9], 2 µM; in [10], 2.68 µM.
